# Entries after “also recorded” stand apart in the source; their conditions may differ.
# How the values were obtained:
# DSS-induced colitis mice = test: DSS-induced colitis mouse model; assay type: in vivo; details: 3 mg/kg C52 intragastric, 14 days
# Procedure: Male BALB/c mice aged 6 to 7 weeks were given 2.8% DSS (Yisheng Biotechnology Co., Ltd., Shanghai) to induce ulcerative colitis through drinking water, and the model was established continuously for 7 days. From the first day of modeling, 3 mg/kg of […] or 300 mg/kg of the positive drug mesalamine (5'-aminosalicylic acid, 5-ASA) was given by intragastric administration, and continued after the modeling 7 days. The model group was given the same volume of solvent every day. The normal control group was fed routinely without any treatment. From the first day of modeling, the animals in each group were weighed every day, and the health condition of the mice, appearance of feces and hematochezia were recorded. When the body weight of the mice lost more than 25% during the modeling process, the animals were euthanized in time. After 14 days of administration of […], mice in each group were sacrificed by vertebral dislocation. The colon was harvested, photographed and its length measured. The colon near the rectum was cut and stored in 4% paraformaldehyde ([…] Biotechnology Co., Ltd., Wuhan) for HE staining to observe the histopathological changes of the colon. Mesenteric lymph nodes were collected for flow cytometric detection of the proportion of Treg cells.
# A549 cells = test: Exosome release from lung cancer cells (NTA, Western blot); assay type: cell-based, human
# Procedure: (§1) Human non-small cell lung cancer A549 cells and human pancreatic cancer PANC-1 cells were purchased from the Chinese Academy of Sciences Stem Cell Bank (Shanghai, China). […] Purification, characterization, and analysis of exosomes: To purify exosomes from cell culture supernatants, cells were cultured for 3 days in DMEM medium supplemented with 10% exosome-free FBS prepared by ultracentrifugation of regular FBS at 120,000 g for 16 h. Cell culture supernatants were collected and centrifuged at 500 g for 5 min and then at 2,000 g for 20 min to remove dead cells and cell debris. Then, large vesicles were removed by centrifugation at 12,000 g for 30 minutes. Crude exosomes were pelleted by ultracentrifugation of the supernatant at 110,000 g for 70 min (Backman Ti70), washed with PBS and filtered (0.2 μm). The pellet was then suspended and ultracentrifuged again at 110,000 g for 70 minutes. All ultracentrifugations were performed at 4° C. The size and number of exosomes were analyzed using an LM10 nanoparticle tracking system (NanoSight) equipped with a blue laser (405 nm). Transmission electron microscope (TEM) observation: The morphology of exosomes prepared from the culture supernatant was observed by transmission electron microscope (TEM). Exosome pellets were fixed overnight at 4° C. in 2% glutaraldehyde. Load a drop of 10 μL of the exosome suspension onto the Formvar/Carbon-coated TEM copper grid and let it stand for 20 min. Drain excess fluid. Samples were fixed with 1% uranyl acetate for 5 min, washed 8 times with double distilled water, and dried under incandescent lamp for 10 min, then examined with Tecnai G2 Spirit Bio TWIN transmission electron microscope (FEI, Hillsboro, USA, working voltage 120 kV). […] The lysate was centrifuged to remove insoluble material.
# PANC-1 cells = test: Exosome release from pancreatic cancer cells (NTA, Western blot); assay type: cell-based, human
# Procedure: as §1
# Huh7-NC12 cells [1] = test: Exosome release from liver cancer cells (luciferase exosome reporter, ExoHTP platform); assay type: cell-based; details: 48 h, luciferase activity of exosomes purified from supernatant
# [2] = tested on: 84 selected human cancer-associated proteins in PANC-1 cells; details: 3 μM C52 or 5 μM C52 for 48 h
# Procedure: Cell culture: Human non-small cell lung cancer A549 cells, human pancreatic cancer PANC-1 cells, human glioma U87 cells, human liver cancer HUH7 cells and SMMC-7721 cells, and human gastric cancer AGS cells were purchased from ATCC or Stem Cell Bank of Chinese Academy of Sciences (Shanghai, China). Cells were cultured in RPMI1640 medium containing 10% fetal bovine serum (Sigma, USA), 100 U penicillin and 100 μg/ml streptomycin (Gibco, USA) at 37° C. in a humidified atmosphere containing 5% CO2.
# A total of 200 g of lysate protein was run on one Human XL Tumor Array (R&D Systems, Abingdon, UK). Followed the manufacturer's instructions exactly. The protein chip membrane was covered with plastic film and exposed to X-ray film for 8 minutes. Optical density on exposed X-ray film (hu.q, HQ-320XT, China) was quantified using a transmission mode scanner (EPSON, Beijing, China) and analyzed using Image J software.
# Treg cells = test: Syngeneic mouse CT26 tumor model (Treg activation and regeneration); assay type: in vivo; details: 100 mg/kg C52 oral QD
# Procedure: BALB/c mice were subcutaneously inoculated with 1×10E6 CT26 cells. Mice were randomly assigned to each treatment group. The tumor size was measured with a caliper, and the tumor volume was calculated by the following formula: V=length×width 2×1/2. Tumor-bearing mice were orally administered with vehicle or 100 mg/kg […], QD. On the 13th day after tumor inoculation, vehicle- and […]-treated mice were given a single intraperitoneal injection of low-dose (50 mg/kg) cyclophosphamide (Sigma-Aldrich). Mice were euthanized before tumors reached 2.0 cm in longest dimension. Spleen and lymph node samples were collected for flow cytometric analysis.
# Huh7-NC12 cells [3] = test: PrestoBlue cell viability of liver cancer cells
# [4] = Western blot, 0.1, 1 and 10 μM C52, 48 h
# [5] = Western blot, 0.1, 1 and 10 μM C52, 48 h, extracellular
structure (smiles),measurement,setting,value
O=C(Nc1ccc(F)cc1)Nc1ccc(Nc2nc(/C=C/c3ccccc3)nc(N3CCOCC3)n2)cc1 [Compound C52],disease activity index,DSS-induced colitis mice; vs vehicle,decreased
same,histological score,DSS-induced colitis mice; vs vehicle,very significant reduction
same,intestinal bleeding,DSS-induced colitis mice; vs vehicle,reduced
same,shortened colon length,DSS-induced colitis mice; vs vehicle,marked improvement
same,weight loss,DSS-induced colitis mice; vs vehicle,significantly less
same,ratio of Treg to CD4+ T cells in the mesenteric lymph nodes,DSS-induced colitis mice; vs vehicle control,significantly higher
same,exosomes in culture supernatant (nanoparticle tracking analysis),A549 cells; 1 μM C52 vs DMSO,significantly reduced
same,intracellular exosome levels,A549 cells; [4],did not reduce
same,"content of exosomal markers (CD9, CD63, TSG101) in prepared exosome samples",A549 cells; [5],significant reduction
same,exosomes in culture supernatant (nanoparticle tracking analysis),PANC-1 cells; 1 μM C52 vs DMSO,significantly reduced
same,intracellular exosome levels,PANC-1 cells; [4],did not reduce
same,"content of exosomal markers (CD9, CD63, TSG101) in prepared exosome samples",PANC-1 cells; [5],significant reduction
same,inhibition of exosome release,Huh7-NC12 cells [1],comparable to that of the known exosome inhibitor GW4869; also recorded: effectively inhibit the release of exosomes
same,effect on protein levels of vimentin and other signaling molecules involved in cell proliferation,[2],little or no effect
same,tumor growth vs vehicle-treated control mice,Treg cells; BALB/c mice with CT26 tumors,grow faster
same,regeneration of Treg in lymph nodes,"Treg cells; day 29, 16 days after low-dose cyclophosphamide",significantly increased
same,cytotoxicity,"Huh7-NC12 cells [3]; 48 h, highest concentration 10,000 nM, high concentrations 3,160 and 10,000 nM",not cytotoxic
same,survival rate,Huh7-NC12 cells [3]; after two days of treatment,about 90%
same,toxicity to Huh7-NC12 cells,Huh7-NC12 cells [3]; high concentrations (>3160 nM),not toxic

# From patent US20250041311A1, “Compound For Treating or Preventing Vimentin-Mediated Diseases” (Aluda Pharmaceuticals, Inc., priority 2021, published 2025)
